Assay results reported in patent US20090099150A1, “Methotrexate Combinations For Treating Inflammatory Diseases” (priority 2005, published 2009).

Legend:
[1] = test system: collagen-induced arthritis; assay: Clinical assessment of collagen-induced arthritis (percent arthritic rats, arthritis index); type: in vivo, Lewis rats; conditions: CIA rats
[2] = test system: collagen-induced arthritis; assay: Hind paw volume by plethysmometry in collagen-induced arthritis; type: in vivo, Lewis rats; conditions: CIA rats, alone
[3] = test system: collagen-induced arthritis; assay: Radiography of hind paws at day 35; type: in vivo, Lewis rats; conditions: CIA rats; for protection from bone resorption / joint pathology (FIG. 4: histological damage score and radiograph score): alone; for radiographic bone resorption / joint pathology of hind paws: methotrexate 0.15 mg/kg orally
TNF-α = assay: Plasma TNF-α level (ELISA) at 35 days in collagen-induced arthritis; type: in vivo, Lewis rats; conditions: CIA rats, day 35
Protocol: (§1) Animals were randomly divided into sixth groups (n=10 for each group); (1) Sham group receiving intraperitoneally 26 mM sodium bicarbonate buffer at pH 8.1-8.3 which constituted the vehicle for M40403; (2) CIA group which constituted rats subjected to collagen induced arthritis as described below; (3) CIA+M40403 (2 mg/kg) group in which rats subjected to collagen-induced arthritis received M40403 at 2 mg/kg i.p. every 24 h, starting from day 25; (4) CIA+MET (0.015 mg/kg) group in which rats subjected to collagen-induced arthritis received orally, methotrexate at 0.015 mg/kg starting from day 25; (5) CIA+MET (0.15 mg/kg) group in which rats subjected to collagen-induced arthritis received orally, methotrexate at 0.15 mg/kg starting from day 25; (6)
(§2) CIA+MET+M40403 group in which rats subjected to collagen-induced arthritis received methotrexate (0.015 mg/kg; orally) and with M4043 (2 mg/kg, i.p.) starting from day 25.
(§3) Collagen-induced arthritis was produced as follows. Bovine type II collagen was dissolved in 0.01 M acetic acid at a concentration of 2 mg/ml by stirring overnight at 4° C. Dissolved collagen was frozen at −70° C. until use. Complete Freund's adjuvant was prepared by the addition of Mycobacterium tuberculosis H37Ra at a concentration of 2 mg/ml. Before injection, the collagen was emulsified with an equal volume of complete Freund's adjuvant. Collagen-induced arthritis was elicited as previously described (Salvemini et al Arthritis & rheumatism 44:2909-2921, 2001). On day 1, Lewis rats were injected intradermally at the base of the tail with 100 μl of the emulsion (containing 100 μg of bovine type II collagen). On day 21, a second injection of type II collagen in complete Freund's adjuvant was administered.
(§4) TNF-α and IL-1β levels were evaluated in plasma at 35 days after the induction of arthritis. The assay was carried out by using a calorimetric, commercial kit (Calbaiochem-Novabiochem Corporation, USA). The ELISA has a lower detection limit of 5 pg/ml.

IL-1β = assay: Plasma IL-1β level (ELISA) at 35 days in collagen-induced arthritis; type: in vivo, Lewis rats; conditions: CIA rats, day 35
Protocol: as §1, §2, §3, §4

[4] = Body weight gain in collagen-induced arthritis; type: in vivo, Lewis rats; conditions: CIA rats
Protocol: as §1, §2, §3

[5] = test system: type II collagen induced arthritis; conditions: Salvemini et al., Arthritis & Rheumatism 44:2909-2921, 2001; cited from earlier work
inflammation = conditions: Salvemini et al., Science 286:304-306, 1999; cited from earlier work
[6] = test system: collagen-induced arthritis; assay: Histological assessment of joint injury at day 35; type: in vivo, Lewis rats; conditions: CIA rats, methotrexate 0.15 mg/kg orally
[7] = methotrexate 0.015 mg/kg orally, alone
[8] = methotrexate 0.015 mg/kg orally

Question: With [Cl-].[Cl-].[Mn+2].c1cc2nc(c1)CN[C@@H]1CCCC[C@H]1NCCN[C@@H]1CCCC[C@H]1NC2 [M40403] as the compound, how does the “development of collagen-induced arthritis (percent of arthritic rats)” value (shortened to “development … (percent of arthritic rats)”) ([1]; M40403 2 mg/kg i.p. every 24 h from day 25, alone) read?
Answer: did not significantly altered the development of collagen-induced arthritis

Question: What about the arthritis index ([1]; M40403 2 mg/kg i.p., alone) of the same compound?
Answer: Neither M40403 (2 mg/kg) nor methotrexate. (0.015 mg/kg) treatment alone attenuated the arthritis index

Question: What about the “hind paw volume (paw edema)” value ([2]; M40403 2 mg/kg i.p.) of the same compound?
Answer: attenuated the paw edema from day 30 to 35

Question: What about the “protection from bone resorption / joint pathology (FIG. 4: histological damage score and radiograph score)” value ([3]; M40403 2 mg/kg i.p.) of the same compound?
Answer: No significant protection

Question: What about the “plasma level of TNF-α” value (TNF-α; M40403 2 mg/kg i.p., alone) of the same compound?
Answer: No significant effect

Question: What about the “plasma level of IL-1β” value (IL-1β; M40403 2 mg/kg i.p., alone) of the same compound?
Answer: No significant effect

Question: And the body weight gain ([4]; M40403 2 mg/kg i.p., alone)?
Answer: significantly attenuated the loss in body weight

Question: What about the “efficacy in an animal model of rheumatoid arthritis” value [5] of the same compound?
Answer: effective

Question: What about the “efficacy in animal models of inflammation” value (inflammation) of the same compound?
Answer: effective

Question: With CN(Cc1cnc2nc(N)nc(N)c2n1)c1ccc(C(=O)N[C@@H](CCC(=O)O)C(=O)O)cc1 [methotrexate, N-[4-[[(2,4-Diamino-6-pteridinyl)methyl]methylamino]benzoyl]-L-glutamic acid] as the compound, how does the “development … (percent of arthritic rats)” value ([1]; methotrexate 0.015 mg/kg orally from day 25, alone) read?
Answer: did not significantly altered the development of collagen-induced arthritis

Question: What about the arthritis index [1, 7] of the same compound?
Answer: Neither M40403 (2 mg/kg) nor methotrexate. (0.015 mg/kg) treatment alone attenuated the arthritis index

Question: What about the “development … (percent of arthritic rats)” value ([1]; methotrexate 0.15 mg/kg orally from day 25, alone) of the same compound?
Answer: significant reduction in the percent of arthritic rats

Question: And the arthritis index ([1]; methotrexate 0.15 mg/kg orally, between days 26 and 35 after immunization)?
Answer: significant suppression (P<0.01)

Question: What about the “hind paw volume (paw edema)” value [2, 8] of the same compound?
Answer: attenuated the paw edema from day 30 to 35

Question: And the “hind paw volume (hind paw swelling)” value ([2]; methotrexate 0.15 mg/kg orally)?
Answer: continuously significant (P<0.001) suppression of hind paw swelling from day 26 to 35

Question: And the Emax at 0.15 mg/kg ([2]; Rattus norvegicus, po, 672 h, methotrexate 0.15 mg/kg orally, from day 28 to 35, read-out: maximal response, suppression of hind paw swelling)?
Answer: 70%

Question: And the “histology of the paw: bone erosion and degree of arthritis (damage score)” value [6]?
Answer: the bone erosion as well as the degree of arthritis were significantly reduced

Question: And the “protection from bone resorption / joint pathology (FIG. 4: histological damage score and radiograph score)” value [3, 8]?
Answer: No significant protection

Question: What about the “radiographic bone resorption / joint pathology of hind paws” value [3] of the same compound?
Answer: suppression of joint pathology

Question: What about the “radiographic bone resorption / joint pathology of hind paws” value ([3]; listed as Methogtrexate) of the same compound?
Answer: markedly protect from bone resorption

Question: And the “plasma level of TNF-α” value (TNF-α; [7])?
Answer: No significant effect

Question: And the “plasma level of TNF-α” value (TNF-α; methotrexate 0.15 mg/kg orally)?
Answer: significantly lower

Question: And the “plasma level of IL-1β” value (IL-1β; [7])?
Answer: No significant effect

Question: And the “plasma level of IL-1β” value (IL-1β; methotrexate 0.15 mg/kg orally)?
Answer: significantly lower

Question: And the body weight gain [4, 7]?
Answer: significantly attenuated the loss in body weight

Question: What about the body weight gain ([4]; methotrexate 0.15 mg/kg orally) of the same compound?
Answer: positively affected the weight gain
